Results taken from PMC8745342, “In Vitro and In Silico Kinetic Studies of Patented 1,7-diEthyl and 1,7-diMethyl Aminoalkanol Derivatives as New Inhibitors of Acetylcholinesterase” (International Journal of Molecular Sciences, 2021).

Tests used:
[1] = biological target: T1, Acetylcholinesterase human (AChE) (Homo sapiens, UniProt P22303); experiment: AChE inhibition kinetics, Ellman's method combined with capillary electrophoresis; assay type: biochemical; details: for Tilt Angle of Lineweaver-Burk line: acetylthiocholine 0.36–46.00 mM, n = 6
T1 construct: purchased Sigma-Aldrich (Poznań, Poland)
Description: In this work, we used the combined Ellman’s method with the capillary electrophoresis method developed by us for the determination of 4,4-dithio-bis-acid nitrobenzoic (DBAN) (main enzyme reaction product) in the presence of acetylthiocholine (ACth), 5-thio-2-nitrobenzoic acid (NTB), 5,5′-dithio-bis-2-nitrobenzoic acid (DTNB), acetylcholinesterase (AChE) and inhibitors (I), (II), (III) and (IV) of acetylcholinesterase. For the development of this method, we optimized the buffer pH, separating background electrolyte (BGE) concentration, wavelength, temperature, and voltage. […] All these separation systems were tested to achieve the best separation parameters, resolution, and analysis time for all components in the reaction mixture. […] Separation was carried out at 15 kV. Each sample was added to the capillary under hydrodynamic injection.
The samples were injected under 5 psi pressure for 3 s. The experiments were performed under constant current conditions (85 μA). […] Before the assay, the capillary was conditioned with 0.1 M NaOH for 10 min at 10 psi and with H2O for 10 min at 10 psi. Then, it was electro conditioned with the running buffer for 20 min at +10 kV and pressure-conditioned with the running buffer for 10 min at 10 psi. Before each injection, the capillary was washed with 1 M NaOH for 2 min, then with H2O for 2 min, and finally with BGE for 2 min. At the end of each working day, the capillary was rinsed for 10 min with 0.1 M NaOH, 10 min with BGE, and 10 min with deionized water at 15 psi. Then, the capillary was exposed to air for 10 min at 20 psi and left empty.
Sample mixtures containing 4,4-dithio-bis-acid nitrobenzoic (DBAN) (main enzyme reaction product) in the presence of acetylthiocholine (ACth), 5-thio-2-nitrobenzoic acid (NTB), 5,5′-dithio-bis-2-nitrobenzoic acid (DTNB), acetylcholinesterase (AChE) and inhibitors (I), (II), (III) and (IV) were introduced automatically by pressure injection (with 2 psi pressure for 5 s on the sample solution). At the day’s end, vials with anode and cathode buffer were emptied and running buffer was filled again at the start of the next day before the analysis.
Acetylcholinesterase activity was determined according to the method by Ellman et al. and according to the procedure described by Rosilene R et al. but slightly modified. […] The tubes containing solutions were preincubated for 2 min at 25 °C. Then, 0.1 mL […] AChE was introduced into tubes 1–9, at an interval of 1 min. All 10 samples were incubated for 3 min at 25 °C. After incubation, the analytical samples were introduced into the capillary.
The inhibition constants (Ki) were calculated from the plotted Lineweaver–Burk curves for the four concentrations of the inhibitors (I), (II), (III) and (IV). The method was based on two steps (Figure 8).

AChE = details: model AChE inhibitors; read-out: IC50 (inhibition potency); cited from earlier work
[2] = inhibitor 0.08 mM, acetylthiocholine 0.36 mM
[3] = inhibitor 0.08 mM, acetylthiocholine 0.72 mM
[4] = inhibitor 0.08 mM, acetylthiocholine 1.44 mM
[5] = inhibitor 0.08 mM, acetylthiocholine 2.88 mM
[6] = inhibitor 0.08 mM, acetylthiocholine 5.75 mM
[7] = inhibitor 0.08 mM, acetylthiocholine 11.50 mM
[8] = inhibitor 0.08 mM, acetylthiocholine 23.00 mM
[9] = inhibitor 0.08 mM, acetylthiocholine 34.50 mM
[10] = inhibitor 0.08 mM, acetylthiocholine 46.00 mM

T1 sequence (P22303 32-614): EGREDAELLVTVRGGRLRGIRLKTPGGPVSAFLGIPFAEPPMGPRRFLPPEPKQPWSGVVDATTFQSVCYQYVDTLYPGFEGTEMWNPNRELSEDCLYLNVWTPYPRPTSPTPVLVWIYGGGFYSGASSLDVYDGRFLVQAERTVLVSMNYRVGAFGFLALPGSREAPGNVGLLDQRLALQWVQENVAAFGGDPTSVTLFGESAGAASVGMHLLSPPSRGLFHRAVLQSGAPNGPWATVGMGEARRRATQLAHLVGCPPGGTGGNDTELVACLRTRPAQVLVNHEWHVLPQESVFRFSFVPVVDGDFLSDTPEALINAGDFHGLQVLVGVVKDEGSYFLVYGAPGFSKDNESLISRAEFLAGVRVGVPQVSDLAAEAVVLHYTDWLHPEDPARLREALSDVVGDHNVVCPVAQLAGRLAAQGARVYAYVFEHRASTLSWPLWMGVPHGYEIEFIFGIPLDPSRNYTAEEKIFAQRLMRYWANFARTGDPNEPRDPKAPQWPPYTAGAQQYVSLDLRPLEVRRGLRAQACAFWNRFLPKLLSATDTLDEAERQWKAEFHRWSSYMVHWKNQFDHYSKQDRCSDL

CN(C)CC(O)CN1C(=O)C2C(C1=O)C1(C)C(=O)C2(C)C(c2ccccc2)=C1c1ccccc1 (stereo not drawn) [Compound (IV)]
type of AChE inhibition ([1]; from Lineweaver-Burk plots, Km and Vmax): competitive
IC50 ([1]; from activity (%) versus inhibitor concentration plots): 35 ± 1 µM
Vmax ([1]; inhibitor 0.01 mM): 0.63 ± 0.02 mM/min
Tilt Angle of Lineweaver-Burk line ([1]; inhibitor 0.01 mM): 59.58 ± 0.04 °
Vmax ([1]; inhibitor 0.02 mM): 0.63 ± 0.02 mM/min
Tilt Angle of Lineweaver-Burk line ([1]; inhibitor 0.02 mM): 60.09 ± 0.04 °
Vmax ([1]; inhibitor 0.04 mM): 0.64 ± 0.03 mM/min
Tilt Angle of Lineweaver-Burk line ([1]; inhibitor 0.04 mM): 65.58 ± 0.03 °
Vmax ([1]; inhibitor 0.06 mM): 0.63 ± 0.01 mM/min
Tilt Angle of Lineweaver-Burk line ([1]; inhibitor 0.06 mM): 69.76 ± 0.03 °
Vmax ([1]; inhibitor 0.08 mM): 0.64 ± 0.03 mM/min
1/Vo, mean [1, 2]: 9.85 min/mM
Peak area of product (4,4-dithio-bis-acid nitrobenzoic), mean [1, 2]: 45817
V0 (reaction speed), mean [1, 2]: 0.10 mM/min
1/Vo, mean [1, 3]: 5.40 min/mM
Peak area of product (4,4-dithio-bis-acid nitrobenzoic), mean [1, 3]: 84020
V0 (reaction speed), mean [1, 3]: 0.19 mM/min
1/Vo, mean [1, 4]: 3.50 min/mM
Peak area of product (4,4-dithio-bis-acid nitrobenzoic), mean [1, 4]: 118587
V0 (reaction speed), mean [1, 4]: 0.29 mM/min
amount of 4,4-dithio-bis-acid nitrobenzoic (DBAN) product in the presence of inhibitor ([1]; inhibitor 0.08 mM, acetylthiocholine 1.44 mM, 0.66 mM without inhibitors): 0.48 mM
1/Vo, mean [1, 5]: 2.30 min/mM
Peak area of product (4,4-dithio-bis-acid nitrobenzoic), mean [1, 5]: 157575
V0 (reaction speed), mean [1, 5]: 0.43 mM/min
1/Vo, mean [1, 6]: 2.05 min/mM
Peak area of product (4,4-dithio-bis-acid nitrobenzoic), mean [1, 6]: 190708
V0 (reaction speed), mean [1, 6]: 0.49 mM/min
1/Vo, mean [1, 7]: 1.80 min/mM
Peak area of product (4,4-dithio-bis-acid nitrobenzoic), mean [1, 7]: 212913
V0 (reaction speed), mean [1, 7]: 0.56 mM/min
1/Vo, mean [1, 8]: 1.70 min/mM
Peak area of product (4,4-dithio-bis-acid nitrobenzoic), mean [1, 8]: 228126
V0 (reaction speed), mean [1, 8]: 0.59 mM/min
1/Vo, mean [1, 9]: 1.55 min/mM
Peak area of product (4,4-dithio-bis-acid nitrobenzoic), mean [1, 9]: 230596
V0 (reaction speed), mean [1, 9]: 0.65 mM/min
1/Vo, mean [1, 10]: 1.50 min/mM
Peak area of product (4,4-dithio-bis-acid nitrobenzoic), mean [1, 10]: 231671
V0 (reaction speed), mean [1, 10]: 0.65 mM/min
Tilt Angle of Lineweaver-Burk line ([1]; inhibitor 0.08 mM): 70.40 ± 0.03 °

CCN(C)C(=O)Oc1cccc([C@H](C)N(C)C)c1 [Rivastigmine]
IC50 (AChE): […]
